In patent publication US7074768B2, “Modified protein kinase A-specific oligonucleotides and methods of their use” (Idera Pharmaceuticals, Inc., priority 1995, dated 2006):

System: Factor VIII related antigen
Assay: Tumor-induced neovascularization (anti-Factor VIII related antigen immunohistochemistry)
Assay type: in vivo
Description: In recent years, the critical role of tumor-induced neovascularization in neoplastic development, progression and metastasis has been elucidated (J. I. Fokman, In: J. Mendelsohn et al., eds., The Molecular Basis of Cancer, pp 206–232, Philadelphia: W B Saunders (1995) . A reliable histologic estimate of novel blood vessels on tumor specimens is the microvessel count (MVC) in the most intense areas of neovascularization. In the present study, tumor-induced neovascularization was quantified by immunohistochemistry using an anti-Factor VIII related antigen monoclonal antibody (N. Weidner, Breast Cancer Res. Treat., 36:169–180 (1995)).

HYB 165: Hybrid 18-mer mixed backbone antisense to PKA RIα, GCGUGCCTCCTCACUGGC (SEQ ID NO:4), 2-O-methyl ribonucleotides at 5′ and 3′ ends (sugars by position and backbone not given here; 2'-O-methyl ribonucleotides at both ends, mixed backbone)
vessel formation (combined treatment with taxol and HYB 165): completely suppressed vessel formation in GEO tumors
inhibition of staining (microvessel count) (single agent, vs untreated mice or scramble MBO): about 80%
